# Columns and labels:
# Assay in all cases: relative viability (nuclei count vs DMSO), 5 days (fraction); higher = more cells survive
# [1] = compound: CC(C)N(CCCNC(=O)Nc1ccc(C(C)(C)C)cc1)C[C@H]1O[C@@H](n2ccc3c(N)ncnc32)[C@H](O)[C@@H]1O + CS(=O)(=O)CCNCc1ccc(-c2ccc3ncnc(Nc4ccc(OCc5cccc(F)c5)c(Cl)c4)c3c2)o1 [Lapatinib] (partner 2 µM)
# How it was run: (§1)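 Lung cancer cell lines in 1536-well plates were dosed by pin tool the day after seeding, either with one drug alone or with a fixed anchor-drug dose plus five library-drug doses (not always all listed) in √10 steps. After 5 days, cells were fixed and their nuclei stained in one step (final 0.05% Triton X-100, 1% formaldehyde, 1 ug/ml Hoechst), then counted on 4× images. Relative viability is the nuclei count in treated wells divided by that in vehicle wells. Values are medians of duplicate plates.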
# [2] = compound: CC(C)=CC[C@@H](O)C1=CC(=O)c2c(O)ccc(O)c2C1=O [Shikonin] + COc1cc2c(Oc3ccc(NC(=O)C4(C(=O)Nc5ccc(F)cc5)CC4)cc3F)ccnc2cc1OCCCN1CCOCC1 [Foretinib] (partner 0.25 µM)
# How it was run: as §1
# [3] = compound: CC(C)N(CCCNC(=O)Nc1ccc(C(C)(C)C)cc1)C[C@H]1O[C@@H](n2ccc3c(N)ncnc32)[C@H](O)[C@@H]1O + Nc1nc2[nH]cc(CCc3ccc(C(=O)N[C@@H](CCC(=O)O)C(=O)O)cc3)c2c(=O)[nH]1 [Pemetrexed] (partner 0.2 µM)
# How it was run: as §1
# [4] = compound: CC(C)N(CCCNC(=O)Nc1ccc(C(C)(C)C)cc1)C[C@H]1O[C@@H](n2ccc3c(N)ncnc32)[C@H](O)[C@@H]1O + COc1cccc2cc(-c3nc([C@H]4CC[C@H](C(=O)O)CC4)n4ncnc(N)c34)[nH]c12 [OSI-027] (partner 0.5 µM)
# How it was run: as §1
Cell Line,relative viability ([1]; first compound 0.08 µM),relative viability ([1]; first compound 0.253 µM),relative viability ([1]; first compound 0.8 µM),relative viability ([1]; first compound 2.53 µM),relative viability ([1]; first compound 8 µM),relative viability ([2]; first compound 0.01 µM),relative viability ([2]; first compound 0.1 µM),relative viability ([2]; first compound 0.3162 µM),relative viability ([2]; first compound 1 µM),relative viability ([3]; first compound 0.08 µM),relative viability ([3]; first compound 0.253 µM),relative viability ([3]; first compound 0.8 µM),relative viability ([3]; first compound 2.53 µM),relative viability ([3]; first compound 8 µM),relative viability ([4]; first compound 0.08 µM),relative viability ([4]; first compound 0.253 µM),relative viability ([4]; first compound 0.8 µM),relative viability ([4]; first compound 2.53 µM),relative viability ([4]; first compound 8 µM)
EBC-1,0.206,0.196,0.212,0.183,0.206,0.0907,0.107,0.11,0.112,–,–,–,–,–,–,–,–,–,–
EKVX,0.205,0.202,0.185,0.206,0.212,0.751,0.646,1.05,0.762,0.44,0.325,0.413,0.464,0.404,0.718,0.713,0.71,0.704,0.668
EMC-BAC-2,0.9,0.916,0.915,0.929,0.82,0.993,1.05,1.16,0.972,0.439,0.465,0.432,0.431,0.488,0.384,0.485,0.42,0.412,0.355
EPLC-272H,1.05,0.81,0.823,0.981,1.11,0.715,0.601,0.783,0.726,0.404,0.303,0.298,0.341,0.396,0.275,0.423,0.274,0.283,0.259
H3255,0.242,0.255,0.231,0.253,0.216,0.851,0.876,0.869,0.856,0.569,0.538,0.61,0.562,0.548,0.564,0.614,0.685,0.543,0.538
HARA,0.637,0.679,0.429,0.498,0.568,0.936,1.13,0.865,0.883,0.229,0.293,0.236,0.233,0.231,0.454,0.536,0.621,0.568,0.375
HCC-15,0.864,0.876,0.68,0.818,0.804,1.05,1.02,1.12,0.986,0.221,0.225,0.229,0.213,0.219,0.641,0.815,0.6,0.812,0.655
HCC-44,1.08,1.11,0.857,1.05,0.959,–,–,–,–,0.662,0.654,0.539,0.688,0.586,0.507,0.509,0.432,0.572,0.552
HCC-78,0.693,0.809,0.786,0.431,0.701,0.562,0.621,0.614,0.627,0.869,0.848,0.928,0.844,0.846,0.376,0.388,0.356,0.364,0.346
